These results are taken from PMC8284453 (Antimicrobial Agents and Chemotherapy, 2021).

One data set concerns the target T1, CMY-2 (Klebsiella pneumoniae, UniProt Q48434).
T1 construct: made in house; host or cells: E. coli BL21(DE3), pET9a
Description: IC50 determination against purified β-lactamase. The format is biochemical.

For the next data set, the target named is T2, OXA-1 (Escherichia coli, UniProt P13661).
T2 construct: made in house; host or cells: E. coli BL21(DE3), pET9a
Description: IC50 determination against purified β-lactamase. Format: biochemical. The settings on record: substrate nitrocefin; mean from duplicate measurements.

For data set [1], the target named is T3, CTX-M-15 (Escherichia coli, UniProt Q9EXV5). Description: IC50 determination against purified β-lactamase. The format is biochemical. Details: made in house; host or cells: E. coli BL21(DE3), plasmid pET-CTX-M-15 (pET9a). How it is done: (§1) An equal volume of enzyme was added (assay concentrations, 0.6 nM P99AmpC, 21 nM CTX-M-15, 3 nM KPC-2, 100 nM SHV-5), and the mixtures were preincubated for 15 min at 37°C. For AmpC, nitrocefin was then added to obtain a final concentration of 100 μM, and the absorbance at a wavelength (λ) of 486 nm (representing hydrolysis of the nitrocefin β-lactam ring) was monitored immediately using a BioTek Powerwave XS2 microplate reader. In similar fashion, using UV-transparent 96-well microtiter plates, hydrolysis of imipenem (100 μM) by KPC-2 was monitored at λ 300 nm, while cefotaxime (100 μM) hydrolysis by CTX-M-15 and SHV-5 was monitored at λ 300 nm. Assays were performed in duplicate, and the percentage inhibition relative to reaction mixtures containing no inhibitor were determined for each concentration of inhibitor.

The target in data set [2] is T4, P99AmpC (Enterobacter cloacae, UniProt P05364). Description: IC50 determination against purified β-lactamase. As to conditions: substrate nitrocefin; mean from duplicate measurements. The format is biochemical. Also on record: P99AmpC was purified directly from the Enterobacter cloacae P99 clinical isolate; made in house; host or cells: Enterobacter cloacae P99 (native producer, induced with sub-MIC imipenem). Here is the method:
as §1

In a further data set the target is T5, OXA-48 (Klebsiella pneumoniae, UniProt Q6XEC0).
T5 construct: made in house; host or cells: E. coli BL21(DE3), plasmid pET-OXA-48 (pET9a)
In words: biochemical.

Data set [3] relates to isogenic strains of E. coli expressing Ambler class A, B, C, and D enzymes. In words: microbe, parasite or virus in culture. Format: cell-based, Escherichia coli. As to conditions: Escherichia coli, read-out: modal MIC.
Data set [4] concerns the target T6, KPC-2 (Klebsiella pneumoniae, UniProt Q9F663). In words: IC50 determination against purified β-lactamase. Format: biochemical. Details: made in house; host or cells: E. coli BL21(DE3), plasmid pET-KPC-2 (pET9a). The settings on record: substrate imipenem; mean from duplicate measurements. How it is done:
as §1

In data set [5] the target is T6, KPC-2. In words: biochemical.
For data set [6], the target named is T3, CTX-M-15. Description: biochemical.
The target of a further data set is T7, SHV-5 (Klebsiella pneumoniae, UniProt P0A3M1).
T7 construct: made in house; host or cells: E. coli BL21(DE3)/pLysS, plasmid pET-SHV-5 (pET9a)
In words: biochemical. Format: biochemical.

The test system of data set [7] is serine β-lactamases (CTX-M-15, SHV-5, KPC-2, P99AmpC). In words: Kinetic parameters, summary across enzymes. The format is biochemical. The settings on record: range across the four enzymes.
The test system of data set [8] is four strains of Gram-positive organisms or nine strains of Gram-negative bacilli. Description: Stand-alone antibacterial activity. As to conditions: all MICs. Format: cell-based.
The target of data set [9] is T8, protein serine/threonine phosphatase, PPP3CA (calcineurin PP2B) (Homo sapiens, UniProt Q08209).
T8 construct: Eurofins/Panlabs (DrugMatrixScreen, contract assay)
Description: DrugMatrixScreen selectivity panel. The settings on record: screening concentration of 100 μM. Format: biochemical. How it is done: (§2) Binding, enzymatic, and uptake assays representing a wide range of cellular and subcellular target classes were performed. […] The in vivo significance of these in vitro activities is not known.
(§3) The selectivity of VNRX-5236 was assessed in the DrugMatrixScreen at Eurofins Discovery Services. This screen encompasses 123 mammalian receptor and enzyme classes (and a single prokaryotic target, a β-lactamase) that can be used to assess the potential off-target activities of development candidates ([34]).

In data set [10] the target is T9, protein tyrosine kinase Fyn (Homo sapiens, UniProt P06241).
T9 construct: Eurofins/Panlabs (DrugMatrixScreen, contract assay)
In words: DrugMatrixScreen selectivity panel. The settings on record: screening concentration of 100 μM. The format is biochemical. How it is done:
as §2, §3

A further data set concerns 3T3. In words: Mammalian cell cytotoxicity. Format: cell-based. The settings on record: dividing cell cultures. How it is done: (§4) Mammalian cell cytotoxicity. Cytotoxicity evaluations were conducted on actively dividing cells to maximize assay sensitivity. Procedurally, 180 μl of cells were seeded in cell-culture-treated 96-well plates (Celltreat, Pepperell, MA) at a density of 2 × 10^4 to 3.5 × 10^4 cells/ml and incubated overnight at 37°C in a humidified, 5% CO2 atmosphere. The next day, compound was diluted in PBS with 6% DMSO in a 0.5 log10 dilution scheme at 10 times the final compound concentration array. […] The cytotoxic agent chlorohexidine was assayed as a positive control at compound concentrations ranging from 0.31 to 100 μg/ml. The final DMSO concentration in all assays was 0.6%.
(§5) After an additional 72 h of incubation (when cells reached 90 to 100% confluence) Cell Titer 96 AQ solution was added at 20 μl per well, and plates were incubated an additional 2 to 4 h at 37°C and 5% CO2. The optical density of the wells was read on a Biotek Cytation 3 plate reader at 490 nm. Background signal (wells receiving Cell Titer reagent but containing no cells) was subtracted from all wells on the plate. […] Experiments were run in triplicate with data from all three trials included in the data analysis.

Another data set concerns HeLa. In words: Mammalian cell cytotoxicity. The settings on record: dividing cell cultures. The format is cell-based. How it is done:
as §4, §5

A further data set has as its system MRC-5. Description: Mammalian cell cytotoxicity. Format: cell-based. The settings on record: dividing cell cultures. How it is done:
as §4, §5

Data set [11] concerns the target T4, P99AmpC. In words: Kinetic parameters of reversible inactivation.
Data set [12] is described as follows: DrugMatrixScreen selectivity panel. As to conditions: 10 μM; 129 in vitro assays. Here is the method:
as §2, §3

On the set-up of data set [13]: method as in earlier work. The settings on record: cited from earlier work.
Where [14] appears, read: substrate cefotaxime, mean from duplicate measurements, read-out: IC50.
[15] abbreviates: half-life of active site occupancy.

≈ marks a conversion by molar mass, not a printed value. Where two headings read alike, the source gives them in different places.

As usually defined, the IC50 is the concentration at which inhibition is half-maximal. Take `NC(=O)[C@@H]1CC[C@@H]2CN1C(=O)N2OS(=O)(=O)O` [Avibactam, avibactam]: the IC50 at CMY-2 (substrate nitrocefin, mean from duplicate measurements, read-out: IC50) was 7 nM; against OXA-1 it was 40 nM; at CTX-M-15 [1] (setting [14]), 3 nM; against P99AmpC [2], 20 nM.

Turning to `O=C(O)[C@H]1/C(=C/CO)O[C@@H]2CC(=O)N21` [Clavulanic acid, clavulanic acid], the concentration for half-maximal inhibition (IC50) against OXA-1 turned out to be 120 nM; against OXA-48, 14300 nM; on KPC-2 [4], 1800 nM; at CTX-M-15 [1] (setting [14]), 40 nM. The MIC in data set [3] amounted to 32 µg/mL (≈ 161 µM).

In general, Ki refers to the equilibrium dissociation constant of an inhibitor or competing ligand from its target. Higher therefore signals weaker binding. Broadly, the inhibition is the drop in the measured response relative to a control, in per cent. Turning to `CCC(=O)N[C@H]1Cc2cccc(C(=O)O)c2OB1O` [VNRX-5236], the IC50 against CMY-2 was determined as 10 nM; against OXA-1, 70 nM; against KPC-2 [4], 80 nM; at CTX-M-15 [1] it was 20 nM. The Ki is 110 nM on KPC-2 [5], 10 nM on CTX-M-15 [6], 40 nM at SHV-5 and 10 to 110 nM in data set [7]. The values for the t1/2 at KPC-2 [5] (setting [15]), on CTX-M-15 [6] (setting [15]) and on P99AmpC [11] (setting [15]) were 46 ± 2 min, 26 ± 0.6 min and 5 ± 0.1 min, respectively. In addition, the “k−2” value was 2.5 ± 0.1 10^−4 s^−1 on KPC-2 [5] (off rate, jump dilution); 4.5 ± 0.1 10^−4 s^−1 at CTX-M-15 [6] (off rate, jump dilution); 12.7 ± 0.07 10^−4 s^−1 at SHV-5 (off rate, jump dilution); 24 ± 0.5 10^−4 s^−1 on P99AmpC [11] (off rate, jump dilution). The “Dissociation rates (k-2)” value in data set [7] is 2.5 to 24 10^−4 s^−1. The MIC in data set [8] was at least 128 µg/mL. In addition, the results for the inhibition at 100 µM in data set [9] and in data set [10] were 56% and 77%, respectively. In addition, the “noncytotoxic up to the highest concentration tested” value with 3T3, in the data set on HeLa and in the data set with MRC-5 was over 1 mg/mL in each case.

`CCC(=O)N[C@H]1Cc2cccc(C(=O)OCOC(=O)C(CC)CC)c2OB1O` [VNRX-7145]: the MIC in data set [8] was at least 128 µg/mL. The off-target findings result in data set [12] was “no notable off-target findings”. Moreover, the “noncytotoxic up to the highest concentration tested” value in the data set on 3T3 and with MRC-5 was over 0.128 mg/mL throughout. Besides, the “levels of circulating VNRX-7145” value in data set [13] (all PK time points) is reported as “exceedingly low”. For the same compound, the oral bioavailability entry in data set [13] (rats, dogs, and monkeys) is “high oral bioavailability”.
